Assay results as given in PubChem BioAssay AID328 (DTP/NCI, 2004).
Values joined by “and” are separate entries in the source; they are usually repeats but may differ in a detail not shown here. Equal entries are not always repeated. Toxic doses and inconclusive results are not listed.

Test system: BDF1 mice, P388 leukemia ip, median survival T/C
Experiment: NCI In Vivo Anticancer Drug Screen. Data for tumor model P388 Leukemia (intraperitoneal) in B6D2F1 (BDF1) mice
Settings: endpoint: median survival time, higher = longer survival
Outline: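 Vehicle-dosed animals serve as the reference; survival of compound-dosed, tumour-implanted mice is divided by it.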

[1] = dose: 0.78 mg/kg/injection, schedule: Q01DX009 (ip), vehicle: water
[2] = dose: 1.56 mg/kg/injection, schedule: Q01DX009 (ip), vehicle: water
[3] = dose: 6.25 mg/kg/injection, schedule: Q01DX009 (ip), vehicle: water
[4] = dose: 12.5 mg/kg/injection, schedule: Q01DX009 (ip), vehicle: water
[5] = dose: 25.0 mg/kg/injection, schedule: Q01DX009 (ip), vehicle: water
[6] = dose: 50.0 mg/kg/injection, schedule: Q01DX009 (ip), vehicle: water
[7] = dose: 100.0 mg/kg/injection, schedule: Q01DX009 (ip), vehicle: water
[8] = dose: 200.0 mg/kg/injection, schedule: Q01DX009 (ip), vehicle: water
[9] = dose: 400.0 mg/kg/injection, schedule: Q01DX009 (ip), vehicle: water
[10] = dose: 25.0 mg/kg/injection, schedule: Q01DX009 (ip), vehicle: Klucel (hydroxypropylcellulose) (HPC)
[11] = dose: 50.0 mg/kg/injection, schedule: Q01DX009 (ip), vehicle: Klucel (hydroxypropylcellulose) (HPC)
[12] = dose: 50.0 mg/kg/injection, schedule: Q04DX003 (ip), vehicle: Klucel (hydroxypropylcellulose) (HPC)

With `CCOC(=S)Nc1ccc(F)cc1` the T/C (dose: 33.7 mg/kg/injection, schedule: Q01DX009 (ip), vehicle: saline with Tween-80) was 94 % of control, the T/C (dose: 67.5 mg/kg/injection, schedule: Q01DX009 (ip), vehicle: saline with Tween-80) was 103 % of control and the T/C (dose: 135.0 mg/kg/injection, schedule: Q01DX009 (ip), vehicle: saline with Tween-80) was 102 % of control.

`Oc1c(-c2ccccc2)cc(-[n+]2c(-c3ccccc3)cc(-c3ccc(-c4ccccc4)cc3)cc2-c2ccccc2)cc1-c1ccccc1` was tested, and the T/C (dose: 25.0 mg/kg/injection, schedule: Q01DX001 (ip), vehicle: saline with Tween-80) was 107 % of control, the T/C (dose: 50.0 mg/kg/injection, schedule: Q01DX001 (ip), vehicle: saline with Tween-80) was 98 % of control and the T/C (dose: 100.0 mg/kg/injection, schedule: Q01DX001 (ip), vehicle: saline with Tween-80) was 102 % of control.

In the case of `O=C1c2ccccc2C(=O)N1CC[P+](c1ccc(Cl)cc1)(c1ccc(Cl)cc1)c1ccc(Cl)cc1`, the T/C [1] was 103 % of control, the T/C [2] was 103 % of control and the T/C (dose: 3.13 mg/kg/injection, schedule: Q01DX009 (ip), vehicle: water) was 103 % of control. The T/C [3] was 110 % of control, the T/C [4] was 103 % of control and the T/C [5] was 103 % of control.

With `CC(=O)n1ncc2ccc([N+](=O)[O-])cc21` the T/C [3] was 103 % of control, the T/C [4] was 97 % of control and 111 % of control and the T/C [5] was 94 % of control (2×) and 108 % of control. The T/C [6] was 94 % of control and 99 % of control, the T/C [7] was 94 % of control and 97 % of control and 105 % of control and the T/C (dose: 100.0 mg/kg/injection, schedule: Q04DX003 (ip), vehicle: water) was 111 % of control. The T/C [8] was 100 % of control, the T/C (dose: 200.0 mg/kg/injection, schedule: Q04DX003 (ip), vehicle: water) was 106 % of control and the T/C [9] was 96 % of control. The T/C (dose: 400.0 mg/kg/injection, schedule: Q04DX003 (ip), vehicle: water) was 98 % of control.

`CN(C)CCNc1ccc([N+](=O)[O-])c2sc3ccccc3c(=O)c12` was tested, and the T/C (dose: 7.5 mg/kg/injection, schedule: Q01DX009 (ip), vehicle: Klucel (hydroxypropylcellulose) (HPC)) was 107 % of control, the T/C (dose: 11.0 mg/kg/injection, schedule: Q01DX009 (ip), vehicle: Klucel (hydroxypropylcellulose) (HPC)) was 115 % of control and the T/C (dose: 12.5 mg/kg/injection, schedule: Q04DX003 (ip), vehicle: Klucel (hydroxypropylcellulose) (HPC)) was 108 % of control. For the same molecule, the T/C (dose: 17.0 mg/kg/injection, schedule: Q01DX009 (ip), vehicle: Klucel (hydroxypropylcellulose) (HPC)) was 108 % of control, the T/C [10] was 157 % of control and 166 % of control and the T/C (dose: 25.0 mg/kg/injection, schedule: Q04DX003 (ip), vehicle: Klucel (hydroxypropylcellulose) (HPC)) was 116 % of control. For the same molecule, the T/C (dose: 37.0 mg/kg/injection, schedule: Q01DX009 (ip), vehicle: Klucel (hydroxypropylcellulose) (HPC)) was 92 % of control and 108 % of control, the T/C [11] was 91 % of control and the T/C [12] was 162 % of control.

`COC(=O)Nc1nc2ccc(C(=O)c3cccs3)cc2[nH]1` was tested, and the T/C (dose: 20.0 mg/kg/injection, schedule: Q01DX009 (ip), vehicle: saline with Tween-80) was 117 % of control, the T/C (dose: 21.6 mg/kg/injection, schedule: Q04DX003 (ip), vehicle: other) was 167 % of control and the T/C (dose: 22.0 mg/kg/injection, schedule: Q04DX003 (ip), vehicle: other) was 153 % of control. The T/C (dose: 36.0 mg/kg/injection, schedule: Q04DX003 (ip), vehicle: other) was 199 % of control, the T/C (dose: 40.0 mg/kg/injection, schedule: Q01DX009 (ip), vehicle: saline with Tween-80) was 183 % of control and the T/C [12] was 163 % of control and 173 % of control. The T/C (dose: 60.0 mg/kg/injection, schedule: Q01DX009 (ip), vehicle: saline with Tween-80) was 225 % of control, the T/C (dose: 60.0 mg/kg/injection, schedule: Q04DX003 (ip), vehicle: other) was 274 % of control and the T/C (dose: 75.0 mg/kg/injection, schedule: Q04DX003 (ip), vehicle: Klucel (hydroxypropylcellulose) (HPC)) was 173 % of control and 175 % of control. For the same molecule, the T/C (dose: 75.0 mg/kg/injection, schedule: Q04DX003 (ip), vehicle: saline with Tween-80) was 193 % of control and the T/C (dose: 100.0 mg/kg/injection, schedule: Q04DX003 (ip), vehicle: Klucel (hydroxypropylcellulose) (HPC)) was 165 % of control and 184 % of control.

In the case of `CCC(C(N)C(=O)O)C(F)(F)F` (stereo not given), the T/C (dose: 50.0 mg/kg/injection, schedule: Q01DX005 (ip), vehicle: saline) was 103 % of control, the T/C (dose: 100.0 mg/kg/injection, schedule: Q01DX005 (ip), vehicle: saline) was 108 % of control and the T/C (dose: 200.0 mg/kg/injection, schedule: Q01DX005 (ip), vehicle: saline) was 103 % of control.

In the case of `CCCCCCCCCCCCCCCCCC[N+](C)(C)C` (tested in a mixture with another compound), the T/C (dose: 1.0 mg/kg/injection, schedule: Q01DX009 (ip), vehicle: saline) was 109 % of control, the T/C (dose: 2.0 mg/kg/injection, schedule: Q01DX009 (ip), vehicle: saline) was 113 % of control and the T/C (dose: 4.0 mg/kg/injection, schedule: Q01DX009 (ip), vehicle: saline) was 118 % of control.

In the case of `O=C(O)c1cc[c]([Hg][S]c2ncnc3nc[nH]c23)cc1`, the T/C (dose: 25.0 mg/kg/injection, schedule: Q01DX009 (ip), vehicle: suspension in saline) was 119 % of control.

For `C#CC[N+]12CN3CN(CN(C3)C1)C2`, the T/C (dose: 50.0 mg/kg/injection, schedule: Q01DX009 (ip), vehicle: saline) was 123 % of control.

With `CCOC(=O)Nc1nc(Cl)c(Cl)nc1Cl` the T/C [1] was 105 % of control, the T/C [2] was 114 % of control and the T/C (dose: 3.12 mg/kg/injection, schedule: Q01DX009 (ip), vehicle: water) was 96 % of control. For the same molecule, the T/C [3] was 100 % of control and 110 % of control, the T/C (dose: 6.25 mg/kg/injection, schedule: Q04DX003 (ip), vehicle: water) was 90 % of control and the T/C [4] was 91 % of control and 95 % of control. For the same molecule, the T/C (dose: 12.5 mg/kg/injection, schedule: Q04DX003 (ip), vehicle: water) was 266 % of control and 102 % of control, the T/C [5] was 100 % of control and the T/C (dose: 25.0 mg/kg/injection, schedule: Q04DX003 (ip), vehicle: water) was 269 % of control. The T/C [6] was 87 % of control and 89 % of control, the T/C (dose: 50.0 mg/kg/injection, schedule: Q04DX003 (ip), vehicle: water) was 266 % of control and 116 % of control and the T/C [7] was 89 % of control and 95 % of control. The T/C [8] was 105 % of control and 108 % of control and the T/C [9] was 118 % of control.

For `C[n+]1ccc(Nc2ccc(NC(=O)c3ccc(C(=O)Nc4ccc(Nc5cc[n+](C)c(N)n5)cc4)cc3)cc2)nc1N`, the T/C (dose: 6.3 mg/kg/injection, schedule: Q01DX007 (ip), vehicle: Klucel (hydroxypropylcellulose) (HPC)) was 180 % of control, the T/C (dose: 6.3 mg/kg/injection, schedule: Q01DX009 (ip), vehicle: saline) was 155 % of control and the T/C (dose: 9.6 mg/kg/injection, schedule: Q01DX007 (ip), vehicle: Klucel (hydroxypropylcellulose) (HPC)) was 180 % of control. The T/C (dose: 9.6 mg/kg/injection, schedule: Q01DX009 (ip), vehicle: saline) was 161 % of control, the T/C (dose: 12.5 mg/kg/injection, schedule: Q01DX009 (ip), vehicle: Klucel (hydroxypropylcellulose) (HPC)) was 190 % of control and the T/C (dose: 14.0 mg/kg/injection, schedule: Q01DX007 (ip), vehicle: Klucel (hydroxypropylcellulose) (HPC)) was 175 % of control. For the same molecule, the T/C (dose: 14.0 mg/kg/injection, schedule: Q01DX009 (ip), vehicle: saline) was 150 % of control, the T/C [10] was 172 % of control and the T/C [11] was 204 % of control. The T/C (dose: 100.0 mg/kg/injection, schedule: Q01DX009 (ip), vehicle: Klucel (hydroxypropylcellulose) (HPC)) was 259 % of control, the T/C (dose: 100.0 mg/kg/injection, schedule: Q04DX003 (ip), vehicle: saline) was 172 % of control and the T/C (dose: 200.0 mg/kg/injection, schedule: Q04DX003 (ip), vehicle: saline) was 163 % of control.

With `COc1cc(C=O)cc(I)c1O` the T/C (dose: 12.5 mg/kg/injection, schedule: Q01DX009 (ip), vehicle: saline sonified) was 105 % of control, the T/C (dose: 12.5 mg/kg/injection, schedule: Q04DX003 (ip), vehicle: saline with Tween-80) was 86 % of control and the T/C (dose: 25.0 mg/kg/injection, schedule: Q01DX009 (ip), vehicle: saline sonified) was 94 % of control. For the same molecule, the T/C (dose: 25.0 mg/kg/injection, schedule: Q04DX003 (ip), vehicle: saline with Tween-80) was 90 % of control, the T/C (dose: 50.0 mg/kg/injection, schedule: Q01DX009 (ip), vehicle: saline sonified) was 100 % of control and the T/C (dose: 50.0 mg/kg/injection, schedule: Q04DX003 (ip), vehicle: saline with Tween-80) was 100 % of control.

For `CC1(C)OCC(C2OC3OC(C)(C)OC3C2O)O1` (stereo not given), the T/C (dose: 20.0 mg/kg/injection, schedule: Q01DX009 (ip), vehicle: saline) was 107 % of control, the T/C (dose: 40.0 mg/kg/injection, schedule: Q01DX009 (ip), vehicle: saline) was 109 % of control and the T/C (dose: 80.0 mg/kg/injection, schedule: Q01DX009 (ip), vehicle: saline) was 108 % of control.
